Molecular target: Transient receptor potential cation channel subfamily V member 1 (Homo sapiens, UniProt Q8NER1)
Sequence (Q8NER1 whole entry): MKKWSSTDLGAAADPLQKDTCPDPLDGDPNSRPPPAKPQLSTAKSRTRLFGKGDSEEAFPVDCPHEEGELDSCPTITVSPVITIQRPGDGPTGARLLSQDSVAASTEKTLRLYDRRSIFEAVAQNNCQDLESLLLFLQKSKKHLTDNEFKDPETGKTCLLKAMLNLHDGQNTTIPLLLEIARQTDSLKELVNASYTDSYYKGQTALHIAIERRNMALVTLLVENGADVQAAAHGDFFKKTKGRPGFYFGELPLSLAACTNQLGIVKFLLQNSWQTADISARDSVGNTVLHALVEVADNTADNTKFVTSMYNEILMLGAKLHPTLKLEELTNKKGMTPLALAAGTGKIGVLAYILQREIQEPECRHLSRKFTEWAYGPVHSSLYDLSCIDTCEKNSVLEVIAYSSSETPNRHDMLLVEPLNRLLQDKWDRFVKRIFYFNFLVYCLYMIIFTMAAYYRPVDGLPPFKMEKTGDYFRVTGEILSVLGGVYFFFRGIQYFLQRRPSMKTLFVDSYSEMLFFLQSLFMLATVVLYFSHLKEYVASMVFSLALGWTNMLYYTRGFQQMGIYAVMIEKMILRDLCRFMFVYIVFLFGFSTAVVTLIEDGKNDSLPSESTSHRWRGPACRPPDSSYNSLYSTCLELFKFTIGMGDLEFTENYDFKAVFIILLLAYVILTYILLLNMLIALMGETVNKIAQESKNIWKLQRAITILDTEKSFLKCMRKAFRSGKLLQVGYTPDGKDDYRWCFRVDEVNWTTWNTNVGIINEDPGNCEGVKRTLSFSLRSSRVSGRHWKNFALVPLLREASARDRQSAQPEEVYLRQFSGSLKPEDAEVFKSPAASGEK
Assay: Antagonist activity at human TRPV1 assessed as inhibition of capsaicin-induced calcium influx in HEK293 cells
Type: functional, cell-based
Details: not given
Molecule COc1ccc2[nH]c(C)c(C(C)CNC(=O)c3ccc(OC(F)(F)F)cc3)c2c1 (stereo not drawn) has an IC50 of 5.07 µM. Molecule O=C(Nc1ccc(-c2ccccc2)cc1)c1ccc(OC(F)(F)F)cc1 has an IC50 greater than 10 µM. Molecule Cn1c2c(c3cc(O)ccc31)C(CNC(=O)c1ccc(OC(F)(F)F)cc1)CCC2 (stereo not drawn) has an IC50 of 0.023 µM. In the case of Cn1cc(CCNC(=O)c2ccc(C(F)(F)F)cc2)c2ccccc21, the IC50 is reported as greater than 10 µM. With COc1ccc2[nH]cc(CCNC(=O)c3ccc(C(F)(F)F)nc3)c2c1 the IC50 was greater than 10 µM. Molecule CC(Cc1cccc2ccc(O)cc12)NC(=O)c1ccc(OC(F)(F)F)cc1 (stereo not drawn) has an IC50 of 0.081 µM. Work on O=C(NCCc1c[nH]c2ccc(Cl)cc12)c1ccc(OC(F)(F)F)cc1 yielded an IC50 of 3.72 µM. In the case of CC(C)(C)c1ccc(-c2nc3cc(OC(F)(F)F)ccc3[nH]2)cc1, the IC50 is reported as 1.42 µM. CCC(c1ccccn1)c1c(Cl)c(Cl)cc2[nH]c(=O)c(=O)[nH]c12 (stereo not drawn) gave an IC50 of 1.4 µM. In the case of COc1ccc2[nH]cc(CCNC(=O)c3ccc(OC(F)(F)F)cc3)c2c1, the IC50 is reported as 1.31 µM. Molecule O=C(NCC1CCCc2[nH]c3ccc(O)cc3c21)c1ccc(OC(F)(F)F)cc1 (stereo not drawn) has an IC50 of 0.2 µM. With CC(=O)c1ccc(C(=O)Nc2ccc(I)cc2)cc1 the IC50 was greater than 10 µM. O=C(NCCn1ccc2ccccc21)c1ccc(OC(F)(F)F)cc1 showed an IC50 of 7.3 µM. COc1ccc2c(OC)ccc(CCNC(=O)c3ccc(OC(F)(F)F)cc3)c2c1 showed an IC50 greater than 10 µM. Molecule O=C(NCCc1c[nH]c2ccccc12)c1ccc(C(F)(F)F)cc1 has an IC50 of 4.23 µM. With O=C(NCCc1cccc2ccc(O)cc12)c1ccc(OC(F)(F)F)cc1 the IC50 was 0.15 µM. For COc1ccc2[nH]cc(CCNC(=O)c3ccc(CC(C)C)cc3)c2c1, the IC50 was 3.43 µM. With CC(C)(C)c1ccc(NC(=O)c2ccc(OC(F)(F)C(F)F)cc2)cc1 the IC50 was 0.07 µM. With O=C(Nc1ccc(I)cc1)c1ccc(C(=O)C(F)(F)F)cc1 the IC50 was 0.79 µM. With O=C(Nc1ccc(I)cc1)c1cccc(C(F)(F)F)c1 the IC50 was greater than 10 µM. Molecule O=C(Nc1ccc(C2CCCCC2)cc1)c1ccc(OC(F)(F)F)cc1 has an IC50 greater than 10 µM. In the case of O=C(NCCC1CCCc2ccccc21)c1ccc(OC(F)(F)F)cc1 (stereo not drawn), the IC50 is reported as 5.4 µM. O=C(NCCN1CCCc2ccc(O)cc21)c1ccc(OC(F)(F)F)cc1 showed an IC50 of 0.96 µM. Work on COc1ccc2[nH]cc(CCNC(=O)c3ccc(OC(F)(F)C(F)F)cc3)c2c1 yielded an IC50 of 1.64 µM. O=C(NCCc1ccc(Cl)cc1Cl)c1ccc(OC(F)(F)F)cc1 showed an IC50 of 2.56 µM. Molecule COc1ccc2[nH]cc(CCNC(=O)c3ccc(-c4ccccc4)nc3)c2c1 has an IC50 of 3.94 µM. COc1ccc2[nH]cc(C(C)CNC(=O)c3ccc(OC(F)(F)F)cc3)c2c1 (stereo not drawn) showed an IC50 of 0.4 µM. For CC(C)(C)c1ccc(NC(=O)c2ccc(C(F)(F)F)cc2)cc1, the IC50 was 0.22 µM. Work on CC(C)(C)c1ccc(NC(=O)c2ccc(OCC(F)(F)F)cc2)cc1 yielded an IC50 greater than 10 µM. With FC(F)(F)c1ccc(-c2ncc(-c3ccc(Br)cc3)[nH]2)cc1 the IC50 was 6 µM. In the case of COc1ccc2[nH]cc(CCNC(=O)c3ccc(-c4ccncc4)cc3)c2c1, the IC50 is reported as greater than 10 µM. Work on CC(C)(C)C1CCC(c2nc3ccc(OC(F)(F)F)cc3[nH]2)CC1 (stereo not drawn) yielded an IC50 of 4.97 µM. For O=C(NCCc1c[nH]c2ccc(O)cc12)c1ccc(OC(F)(F)F)cc1, the IC50 was 1.73 µM. Work on O=C(NCCc1ccnc2ccccc12)c1ccc(OC(F)(F)F)cc1 yielded an IC50 greater than 10 µM. In the case of COc1ccc2c(c1)N(CCNC(=O)c1ccc(OC(F)(F)F)cc1)CCC2, the IC50 is reported as greater than 10 µM. COc1ccc2[nH]cc(CCNC(=O)c3ccc(-c4ccccc4)cc3)c2c1 showed an IC50 of 0.37 µM. COc1ccc2nccc(CC(C)NC(=O)c3ccc(OC(F)(F)F)cc3)c2c1 (stereo not drawn) gave an IC50 greater than 10 µM. O=C(Nc1ccc(I)cc1)c1ccc(OC(F)(F)F)cc1 showed an IC50 of 0.28 µM. Molecule O=C(NCCc1c[nH]c2ccc(F)cc12)c1ccc(OC(F)(F)F)cc1 has an IC50 of 2.62 µM. CC(C)(C)c1ccc(NC(=O)c2ccc(OC(F)(F)F)cc2)cc1 showed an IC50 of 0.12 µM. CC(Cc1ccnc2ccc(O)cc12)NC(=O)c1ccc(OC(F)(F)F)cc1 (stereo not drawn) gave an IC50 of 0.74 µM. With O=C(Nc1ccc(I)cc1)c1ccccc1C(F)(F)F the IC50 was greater than 10 µM.

Same assay, conditions: read-out: pA2 (converted)
In the case of COc1ccc2[nH]cc(C(C)CNC(=O)c3ccc(OC(F)(F)F)cc3)c2c1 (stereo not drawn), the Kb is reported as 0.145 µM.

Molecular target: Transient receptor potential cation channel subfamily V member 1 (Rattus norvegicus, UniProt O35433)
Sequence (O35433 whole entry): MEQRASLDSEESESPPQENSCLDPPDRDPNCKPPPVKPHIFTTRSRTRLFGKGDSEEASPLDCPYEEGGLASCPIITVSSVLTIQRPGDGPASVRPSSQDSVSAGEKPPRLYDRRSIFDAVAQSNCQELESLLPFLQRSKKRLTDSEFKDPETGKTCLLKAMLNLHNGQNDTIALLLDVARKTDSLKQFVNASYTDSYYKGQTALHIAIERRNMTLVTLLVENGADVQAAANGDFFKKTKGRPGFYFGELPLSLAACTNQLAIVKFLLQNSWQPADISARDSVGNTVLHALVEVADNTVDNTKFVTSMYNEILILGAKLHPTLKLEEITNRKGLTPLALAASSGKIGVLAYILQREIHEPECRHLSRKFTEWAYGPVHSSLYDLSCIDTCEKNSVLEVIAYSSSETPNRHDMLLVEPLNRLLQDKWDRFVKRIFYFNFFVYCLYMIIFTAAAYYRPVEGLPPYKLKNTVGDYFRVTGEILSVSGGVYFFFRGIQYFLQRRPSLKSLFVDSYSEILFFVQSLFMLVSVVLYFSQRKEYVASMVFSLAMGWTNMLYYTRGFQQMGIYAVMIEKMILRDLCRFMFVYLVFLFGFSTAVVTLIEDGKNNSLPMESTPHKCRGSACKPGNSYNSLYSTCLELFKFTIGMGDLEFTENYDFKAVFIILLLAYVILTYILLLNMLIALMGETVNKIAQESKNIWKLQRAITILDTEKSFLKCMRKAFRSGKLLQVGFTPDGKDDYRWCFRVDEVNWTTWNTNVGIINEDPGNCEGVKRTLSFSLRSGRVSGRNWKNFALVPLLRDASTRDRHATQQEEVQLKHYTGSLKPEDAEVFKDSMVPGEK
Assay: Antagonist activity at rat TRPV1 assessed as inhibition of capsaicin-induced calcium mobilization
Type: functional
Details: not given
Cn1c2c(c3cc(O)ccc31)C(CNC(=O)c1ccc(OC(F)(F)F)cc1)CCC2 (stereo not drawn) showed an IC50 of 0.41 µM. With CC(C)(C)c1ccc(NC(=O)c2ccc(OC(F)(F)C(F)F)cc2)cc1 the IC50 was 0.26 µM. Molecule COc1ccc2[nH]cc(C(C)CNC(=O)c3ccc(OC(F)(F)F)cc3)c2c1 (stereo not drawn) has an IC50 of 5.2 µM.

Species on record: Mus musculus
Assay: Effect on capsaicin-induced licking in mouse
Type: functional
Details: not given
Molecule CC(C)(C)c1ccc(NC(=O)c2ccc(OC(F)(F)C(F)F)cc2)cc1 has an ED50 of 3.8 mg/kg.

Species on record: Mus musculus
Assay: Effect on capsaicin-induced hypothermia in mouse
Type: functional
Details: not given
For CC(C)(C)c1ccc(NC(=O)c2ccc(OC(F)(F)C(F)F)cc2)cc1, the ED50 was 4.5 mg/kg.

Species on record: Rattus norvegicus
Assay: Effect on capsaicin-induced hypothermia in rat
Type: functional
Details: not given
CC(C)(C)c1ccc(NC(=O)c2ccc(OC(F)(F)C(F)F)cc2)cc1 showed an ED50 of 4.2 mg/kg.

System: Rattus norvegicus
Assay: Reduction of rectal temperature in rat CCI model at 100 mg/kg, ip
Type: functional
Details: route intraperitoneal
CC(C)(C)c1ccc(NC(=O)c2ccc(OC(F)(F)C(F)F)cc2)cc1 showed an inhibition in vivo at 100 mg/kg of 59%.

System: Mus musculus
Assay: Reduction of rectal temperature in mouse CCI model at 100 mg/kg, ip
Type: functional
Details: route intraperitoneal
Molecule CC(C)(C)c1ccc(NC(=O)c2ccc(OC(F)(F)C(F)F)cc2)cc1 has an inhibition in vivo at 100 mg/kg of 59%.

System: Rattus norvegicus
Assay: Effect on carrageenan-induced thermal hyperalgesia in rat at 30 mg/kg, ip
Type: functional
Details: route intraperitoneal
With CC(C)(C)c1ccc(NC(=O)c2ccc(OC(F)(F)C(F)F)cc2)cc1 the inhibition in vivo at 30 mg/kg was 52%.

System: Mus musculus
Assay: Effect on carrageenan-induced thermal hyperalgesia in mouse at 30 mg/kg, ip
Type: functional
Details: route intraperitoneal
With CC(C)(C)c1ccc(NC(=O)c2ccc(OC(F)(F)C(F)F)cc2)cc1 the inhibition in vivo at 30 mg/kg was 52%.

System: not listed separately
Assay: Half life in iv dosed rat
Type: ADME, organism-based
Details: in vivo
Cn1c2c(c3cc(O)ccc31)C(CNC(=O)c1ccc(OC(F)(F)F)cc1)CCC2 (stereo not drawn) gave a half-life of 2.1 h.

System: not listed separately
Assay: Oral bioavailability in rat administered through PEG400
Type: ADME, organism-based
Details: in vivo
With Cn1c2c(c3cc(O)ccc31)C(CNC(=O)c1ccc(OC(F)(F)F)cc1)CCC2 (stereo not drawn) the bioavailability was 30.2%.

System: not listed separately
Assay: Half life in po dosed rat administered through PEG400
Type: ADME, organism-based
Details: in vivo
Cn1c2c(c3cc(O)ccc31)C(CNC(=O)c1ccc(OC(F)(F)F)cc1)CCC2 (stereo not drawn) gave a half-life of 2.1 h.

System: not listed separately
Assay: Oral bioavailability in rat administered through 0.1% MC solution
Type: ADME, organism-based
Details: in vivo
Work on Cn1c2c(c3cc(O)ccc31)C(CNC(=O)c1ccc(OC(F)(F)F)cc1)CCC2 (stereo not drawn) yielded a bioavailability of 0.7%.

System: not listed separately
Assay: Half life in po dosed rat administered through 0.1% MC solution
Type: ADME, organism-based
Details: in vivo
Cn1c2c(c3cc(O)ccc31)C(CNC(=O)c1ccc(OC(F)(F)F)cc1)CCC2 (stereo not drawn) showed a half-life of 1.2 h.

Reference: ChEMBL document CHEMBL1140826, “Synthesis of benzamide derivatives as TRPV1 antagonists” (Bioorg Med Chem Lett, 2008)
